Type in all cases: in vivo
Series [1] deals with APP, APP CTFs, Aβ, LC3-II. The series is described as follows: Western blotting of brain tissue, 5×FAD mice. The procedure: 5×FAD male mice were inbred with wild-type (WT, C57/BL6) female mice to produce heterozygous offspring. Offspring were genotyped to select 5×FAD (APP KM670/671NL (Swedish), APP I716V (Florida), APP V717I (London), PSEN1 M146L (A>C), PSEN1 L286V) gene mutations mice.
Brain tissues were lysed with RIPA buffer (TBS with 1% NP-40, 1% sodium deoxycholic acid, 0.1% SDS, and protease phosphatase inhibitor cocktails) and centrifuged at 15,000 RPM for 30 min. Supernatant is collected and the pellets were further lysed with 2% SDS in RIPA buffer. Protein concentration was estimated by BCA assay. […] Protein chemiluminescence signal was detected by using ECL kit and quantified using ImageJ software.
(A western blot detects proteins with antibodies after separation by electrophoresis.)

For series [2], the system named is 5×FAD mice. Put plainly: Contextual fear conditioning. The procedure:
Male 5×FAD mice were purchased from Jackson laboratories (Stock number 006554) and maintained at 23±2° C. temperature, 60±15% relative humidity with free access to food and water ad libitum. 5×FAD male mice were inbred with wild-type (WT, C57/BL6) female mice to produce heterozygous offspring. Offspring were genotyped to select 5×FAD (APP KM670/671NL (Swedish), APP I716V (Florida), APP V717I (London), PSEN1 M146L (A>C), PSEN1 L286V) gene mutations mice. Two months old WT and 5×FAD mice (male and female, n=10-14 per group) were treated daily with vehicle (1% sodium carbonyl methylcellulose [CMC-Na; Sigma-Aldrich, C5678]), curcumin analogue C1 (5 mg/kg, 10 mg/kg) or curcumin (50 mg/kg; Sigma-Aldrich, 08511) suspended in 1% CMC-Na by oral gavage for 4 months.
Contextual fear conditioning (CFC) was used to evaluate the fear memory reconsolidation of 5×FAD mice after treatment. The experiment was conducted 30 min after the drug treatment in ANY maze fear conditioning system under licensed ANY maze tracking system connected to a Windows XP computer. A digital camera was installed on each chamber and signals were sent to the computer for analysis. The experiments were conducted in two sound proof chambers. All the experiments were conducted with continuous 40 units of white noise and 40 lux white light. During training, mice were allowed to explore the platform for 2.5 min and then received 3 repeated footshock cycles (30 s) at 30 s intervals, each started with a cue tone (28 s, 1500 Hz) and ended by a footshock ([…], 2 s). On the second day the mice were allowed to explore the platform for 3 min followed by a cue tone (30 s, 1500 Hz) without footshock, and the freezing time was recorded. Contextual fear memory formation and the subsequent remote memory stabilization were evaluated by scoring freezing index (the absence of all but respiratory movement).

A short description of series [3]: Distribution of C1 in brain regions, plasma and CSF of rats 30 min after oral dosing. The conditions noted are these: Sprague-Dawley, rat, SD rats, 30 min after oral 10 mg/kg. As for the experimental part:
Male C57BL/6 mice and Sprague Dawley rats were purchased from Chinese University of Hong Kong, acclimatized in Hong Kong Baptist university animal house for 2 weeks. Animals were kept for 18 h fasting before the experiment. Curcumin analog C1 and curcumin were suspended in 1% CMC-Na at 10 mg/kg, given to animals through oral route at 10 ml/kg dosing volume. Blood (by heart puncture) and brain samples were collected starting from 0.25, 0.5, 1, 2, 4, 6, 8, 12 and 24 h time points (n=3 for each time point) under chloral hydrate anesthesia at 500 mg/kg (I.P. injection). Based on mice pharmacokinetic study, rat blood, brain and cerebrospinal fluids (CSF) were collected at 30 minutes time point (n=4). All blood samples were collected in heparinized tubes. Plasma was collected by centrifuging at 10,000 rpm for 10 minutes at 4° C. Blood, brain and CSF were stored in −80° C. until further analysis.
Cerebrospinal fluid (CSF) was collected by puncturing Cisterna Magna. Briefly, stereotaxic apparatus (Stoelting, Wood Dale, USA) was used for CSF collection. The tip of CSF collection needle (21G) was placed at the center of stereotaxic apparatus ear bars contact and considered it as zero point. Then rats were anaesthetized with chloral hydrate at 500 mg/kg in saline through intra-peritoneal route. Rats were fixed on the stereotaxic apparatus with 3 cm elevated body position. Rat head was positioned at nearly 110° angle between stereotaxic apparatus frame and rat nose. Cisterna magna location was identified by a 3 mm^2 depressed area between the spine and occipital protuberance in mid-sagittal plane, at 10-12 mm approximate distance from ear. The collection needle was inserted into the Cisterna magna from zero point at A−P: −1.5±1 mm, M−L: 0 mm and D−V: not more than 4-6 mm (from the skin surface). The needle was connected to a 1 ml syringe through a silicon tube. By applying a gentle negative pressure through 1 ml syringe, 100 μl of CSF without any blood contamination was collected.
Whole brain and brain parts were homogenized with 2 weight/volumes of PBS (pH=3.2), spiked with 10 μl of internal standard salbutamol (200 ng/ml in methanol). The homogenate was liquid-liquid extracted with 1 ml of ethyl acetate. 50 μl of 0.5M sodium hydroxide was added to the brain homogenate for efficient C1 extraction. After vigorous sonication and vortex mixing, samples were centrifuged at 15,000 RPM for 10 min. The supernatant was collected and vacuum dried. The samples were reconstituted with 100 μl of mobile phase (0.1% formic acid in acetonitrile), vortex mixed and transferred to an amber colored sampler vial with plastic insert.
100 μl of plasma and CSF was mixed with 100 μl of PBS (pH=3.2), 10 μl of 0.05 M sodium hydroxide and spiked with 10 μl of salbutamol (200 ng/ml in methanol). The mixture was liquid-liquid extracted with 500 μl of ethyl acetate. After vigorous sonication and vortex mixing, samples were centrifuged at 15,000 RPM for 10 min at 4° C. The supernatant was collected and vacuum dried. The samples were reconstituted with 100 μl of mobile phase (0.1% formic acid in acetonitrile), vortex mixed and transferred to an amber colored sampler vial with plastic insert.
UPLC 1290 (Agilent technologies, CA, USA) with binary pump, autosampler system, column with thermostat, vacuum degasser and 6460 QQQ Mass spectrometer was used for compound detection. Chromatographic separation was achieved by waters BEH-C18 (1.7 μm, 2.1×50 mm) column maintained at 40° C. […]

[4] abbreviates: 5×FAD mice, male and female, 10 mg/kg oral 4 months.

Where two headings read alike, the source gives them in different places.

In the case of `COc1ccccc1/C=C/C(=O)/C=C/c1ccccc1OC` [Compound C1, 1,5-bis(2-methoxyphenyl)penta-1,4-dien-3-one], the “LC3-II levels in brain (autophagy enhancement)” value in series [1] (setting [4]) is “increase in LC3-II levels”. Also, in series [1] (setting [4]), the “levels of A3 in brain” value is listed as “significantly reduced”. Besides, the “levels of APP CTFs in brain” value in series [1] (setting [4]) is listed as “significantly reduced”. In addition, the “Fl-APP levels in brain” value in series [1] (female 5×FAD mice, oral 4 months) is listed as “reduced Fl-APP levels”. For the same compound, the “freezing index (memory reconsolidation) vs vehicle” value in series [2] (10 mg/kg oral daily 4 months, P<0.001) was “significant memory reconsolidation”. For the same compound, the “memory improvement compared with curcumin” value in series [2] (C1 10 mg/kg vs curcumin 50 mg/kg) is listed as “better memory improvement than curcumin”. Further, the concentration at 30 min in series [3] (cerebrospinal fluid, read-out: level of C1 in CSF) was 102 ± 52.4 ng/mL; in series [3] (frontal cortex, read-out: concentration of C1 in the frontal cortex) it was 58 ± 18.6 ng/g; in series [3] (hippocampus, read-out: concentration of C1 in the hippocampus), 68.4 ± 21.7 ng/g; in series [3] (plasma, read-out: level of C1 in plasma), 352 ± 21.4 ng/mL; in series [3] (striatum, read-out: concentration of C1 in the striatum), 4.69 ± 2.19 ng/g.

Source of the values: patent US10987319B2, “TFEB activator C1 ameliorates app and tau pathology and rescues cognitive deficits in neurodegenerative diseases” (Hong Kong Baptist University, priority 2018, dated 2021).
